Results: patent publication US12365695B2, “Fused ring heteroaryl compounds as RIPK1 inhibitors” (BiSiChem Co., Ltd., priority 2019, dated 2025)

Tested on: HT-29 cells
Assay: Cell-based necroptosis assay for RIPK1 activity (cell viability, CCK-8)
Conditions: HT29 (human colon cancer), Z-VAD-FMK 20 μM, human TNFα 10 ng/ml, SM-164 100 nM, 24 h, read-out: Necroptosis inhibition (IC50)
Description: Human colon carcinoma cell HT-29 (KCLB 30038), BV2 mouse microglial cell (cell was a kind gift from Dr. Nak-Yun Sung, Senior researcher at Korea Prime Pharmacy CO., LTD.) and human microglial cell HMC3 (ATCC® CRL-3304™). HT-29 cell was grown in Roswell Park Memorial Institute (RPMI) 1640, BV2 cell was grown in Dulbecco's Modified Eagle's Medium (DMEM) and HMC3 cell was grown in Minimum Essential Media Eagle (MEM) supplemented with 10% fetal bovine serum and 1% mixture of penicillin and streptomycin (Gibco). Cells were maintained at 37° C. in a humidified 5% CO2 atmosphere.
To measure the activity of RIPK1 inhibitor in necroptotic cells, HT-29 cells were treated by control DMSO, human TNFα (Peprotech, Rocky Hill, USA), SM-164 (Biovision, California, USA) and a pan-caspase inhibitor Z-VAD-FMK (Invivogen, San Diego, USA). Cells were pretreated with Z-VAD-FMK 20 μM. After 30 min, human TNFα 10 ng/ml, SM-164 100 nM and RIPK1 Inhibitor (0.0001, 0.001, 0.01, 0.02, 0.05, 0.1, 1, 10 uM) were treated for 24 h. Cell viability was measured by Cell Counting Kit 8 (CCK-8) (Dong-in, Seoul, Korea).

SMILES	IC50
O=C1Nc2nccnc2CCC1NC(=O)n1cc(Cc2ccccc2)cn1 (stereo not shown) [Example 29, 4-benzyl-N-(6-oxo-6,7,8,9-tetrahydro-5H-pyrazino[2,3-b]azepin-7-yl)-1H-pyrazole-1-carboxamide]	> 100 nM
COc1ccc2c(c1)N(C)C(=O)[C@@H](NC(=O)n1cc(Cc3ccccc3)cn1)CO2 [Example 19, (S)-4-benzyl-N-(7-methoxy-5-methyl-4-oxo-2,3,4,5-tetrahydrobenzo[b][1,4]oxazepin-3-yl)-1H-pyrazole-1-carboxamide]	< 10 nM
Cc1cccc(Cc2cnn(C(=O)N[C@H]3COc4ccccc4N(C)C3=O)c2)c1 [Example 5, (S)—N-(5-methyl-4-oxo-2,3,4,5-tetrahydrobenzo[b][1,4]oxazepin-3-yl)-4-(3-methylbenzyl)-1H-pyrazole-1-carboxamide]	< 10 nM
CN1C(=O)[C@@H](NC(=O)n2cc(Cc3ccc(C#N)cc3)cn2)COc2ccccc21 [Example 9, (S)-4-(4-cyanobenzyl)-N-(5-methyl-4-oxo-2,3,4,5-tetrahydrobenzo[b][1,4]oxazepin-3-yl)-1H-pyrazole-1-carboxamide]	< 100 nM
CN1C(=O)C(NC(=O)n2cc(Cc3ccccc3)cn2)CCc2nccnc21 (stereo not shown) [Example 31, 4-benzyl-N-(5-methyl-6-oxo-6,7,8,9-tetrahydro-5H-pyrazino[2,3-b]azepin-7-yl)-1H-pyrazole-1-carboxamide]	> 100 nM
O=C1Nc2c(F)cc(F)cc2CCC1NC(=O)n1cc(Cc2ccccc2)cn1 (stereo not shown) [Example 25, 4-benzyl-N-(7,9-difluoro-2-oxo-2,3,4,5-tetrahydro-1H-benzo[b]azepin-3-yl)-1H-pyrazole-1-carboxamide]	< 100 nM
O=C1Nc2c(F)cc(F)cc2OC[C@@H]1NC(=O)n1cc(Cc2cccc(F)c2)cn1 [Example 15, (S)—N-(6,8-difluoro-4-oxo-2,3,4,5-tetrahydrobenzo[b][1,4]oxazepin-3-yl)-4-(3-fluorobenzyl)-1H-pyrazole-1-carboxamide]	> 100 nM
CN1C(=O)[C@@H](NC(=O)n2cc(Cc3cccc(F)c3)cn2)COc2cccc(F)c21 [Example 13, (S)—N-(6-fluoro-5-methyl-4-oxo-2,3,4,5-tetrahydrobenzo[b][1,4]oxazepin-3-yl)-4-(3-fluorobenzyl)-1H-pyrazole-1-carboxamide]	< 10 nM
O=C1Nc2c(F)cccc2OC[C@@H]1NC(=O)n1cc(Cc2cccc(F)c2)cn1 [Example 11, (S)—N-(6-fluoro-4-oxo-2,3,4,5-tetrahydrobenzo[b][1,4]oxazepin-3-yl)-4-(3-fluorobenzyl)-1H-pyrazole-1 carboxamide]	< 100 nM
CN1C(=O)[C@@H](NC(=O)n2cc(Cc3ccc(F)cc3)cn2)COc2ccccc21 [Example 8, (S)-4-(4-fluorobenzyl)-N-(5-methyl-4-oxo-2,3,4,5-tetrahydrobenzo[b][1,4]oxazepin-3-yl)-1H-pyrazole-1-carboxamide]	< 100 nM
CN1C(=O)C(NC(=O)n2cc(Cc3cccc(F)c3)cn2)CCc2cc(F)cc(F)c21 (stereo not shown) [Example 28, N-(7,9-difluoro-1-methyl-2-oxo-2,3,4,5-tetrahydro-1H-benzo[b]azepin-3-yl)-4-(3-fluorobenzyl)-1H-pyrazole-1-carboxamide]	< 10 nM
COc1ccc2c(c1)N(C)C(=O)[C@@H](NC(=O)n1cc(Cc3cccc(F)c3)cn1)CO2 [Example 20, (S)-4-(3-fluorobenzyl)-N-(7-methoxy-5-methyl-4-oxo-2,3,4,5-tetrahydrobenzo[b][1,4]oxazepin-3-yl)-1H-pyrazole-1-carboxamide]	< 10 nM
CN1C(=O)[C@@H](NC(=O)n2cc(Cc3cccc(F)c3)cn2)COc2cc(F)ncc21 [Example 35, (S)—N-(8-fluoro-5-methyl-4-oxo-2,3,4,5-tetrahydropyrido[4,3-b][1,4]oxazepin-3-yl)-4-(3-fluorobenzyl)-1H-pyrazole-1-carboxamide]	< 10 nM
O=C1Nc2c(F)cc(F)cc2CC[C@@H]1NC(=O)n1cc(Cc2cccc(F)c2)cn1 [Example 26, (S)—N-(7,9-difluoro-2-oxo-2,3,4,5-tetrahydro-1H-benzo[b]azepin-3-yl)-4-(3-fluorobenzyl)-1H-pyrazole-1-carboxamide]	< 10 nM
O=C1Nc2c(F)cc(F)cc2OC[C@@H]1NC(=O)n1cc(Cc2ccccc2)cn1 [Example 14, (S)-4-benzyl-N-(6,8-difluoro-4-oxo-2,3,4,5-tetrahydrobenzo[b][1,4]oxazepin-3-yl)-1H-pyrazole-1-carboxamide]	< 100 nM
CN1C(=O)[C@@H](NC(=O)n2cc(Cc3ccccc3)cn2)COc2cc(F)cc(F)c21 [Example 16, (S)-4-benzyl-N-(6,8-difluoro-5-methyl-4-oxo-2,3,4,5-tetrahydrobenzo[b][1,4]oxazepin-3-yl)-1H-pyrazole-1-carboxamide]	< 10 nM

SMILES	IC50
CN1C(=O)[C@@H](NC(=O)n2cc(Cc3ccccc3)cn2)COc2cc(F)ncc21 [Example 34, (S)-4-benzyl-N-(8-fluoro-5-methyl-4-oxo-2,3,4,5-tetrahydropyrido[4,3-b][1,4]oxazepin-3-yl)-1H-pyrazole-1-carboxamide]	< 10 nM
O=C1Nc2c(F)cccc2OC[C@@H]1NC(=O)n1cc(Cc2ccccc2)cn1 [Example 10, (S)-4-benzyl-N-(6-fluoro-4-oxo-2,3,4,5-tetrahydrobenzo[b][1,4]oxazepin-3-yl)-1H-pyrazole-1-carboxamide]	< 100 nM
CN1C(=O)[C@@H](NC(=O)n2cc(Cc3cccc(F)c3)cn2)COc2ccncc21 [Example 23, (S)-4-(3-fluorobenzyl)-N-(5-methyl-4-oxo-2,3,4,5-tetrahydropyrido[4,3-b][1,4]oxazepin-3-yl)-1H-pyrazole-1-carboxamide]	< 10 nM
CN1C(=O)[C@@H](NC(=O)n2cc(Cc3cccc(C(F)(F)F)c3)cn2)COc2ccccc21 [Example 6, (S)—N-(5-methyl-4-oxo-2,3,4,5-tetrahydrobenzo[b][1,4]oxazepin-3-yl)-4-(3-(trifluoromethyl)benzyl)-1H-pyrazole-1-carboxamide]	< 100 nM
CN1C(=O)[C@@H](NC(=O)n2cc(Cc3cccc(F)c3)cn2)COc2cc(F)cc(F)c21 [Example 17, (S)—N-(6,8-difluoro-5-methyl-4-oxo-2,3,4,5-tetrahydrobenzo[b][1,4]oxazepin-3-yl)-4-(3-fluorobenzyl)-1H-pyrazole-1-carboxamide]	< 10 nM
CN1C(=O)[C@@H](NC(=O)n2cc(Cc3cccc(F)c3)cn2)COc2cccnc21 [Example 21, (S)-4-(3-fluorobenzyl)-N-(5-methyl-4-oxo-2,3,4,5-tetrahydropyrido[3,2-b][1,4]oxazepin-3-yl)-1H-pyrazole-1-carboxamide]	< 10 nM
O=C1Nc2ccccc2OC[C@@H]1NC(=O)n1cc(Cc2ccccc2)cn1 [Example 1, (S)-4-benzyl-N-(4-oxo-2,3,4,5-tetrahydrobenzo[b][1,4]oxazepin-3-yl)-1H-pyrazole-1-carboxamide]	< 100 nM
CN1C(=O)[C@@H](NC(=O)n2cc(Cc3ccccc3)cn2)COc2ccncc21 [Example 22, (S)-4-benzyl-N-(5-methyl-4-oxo-2,3,4,5-tetrahydropyrido[4,3-b][1,4]oxazepin-3-yl)-1H-pyrazole-1-carboxamide]	< 10 nM
O=C1Nc2ccccc2OC[C@@H]1NC(=O)n1cc(Cc2cccc(F)c2)cn1 [Example 2, (S)-4-(3-fluorobenzyl)-N-(4-oxo-2,3,4,5-tetrahydrobenzo[b][1,4]oxazepin-3-yl)-11H-pyrazole-1-carboxamide]	< 100 nM
CN1C(=O)[C@@H](NC(=O)n2cc(Cc3cccc(Cl)c3)cn2)COc2ccccc21 [Example 4, (S)-4-(3-chlorobenzyl)-N-(5-methyl-4-oxo-2,3,4,5-tetrahydrobenzo[b][1,4]oxazepin-3-yl)-1H-pyrazole-1-carboxamide]	< 10 nM
CN1C(=O)[C@@H](NC(=O)n2cc(Cc3ccccc3)cn2)COc2cc(Cl)ncc21 [Example 36, (S)-4-benzyl-N-(8-chloro-5-methyl-4-oxo-2,3,4,5-tetrahydropyrido[4,3-b][1,4]oxazepin-3-yl)-1H-pyrazole-1-carboxamide]	< 10 nM
O=C1Nc2nccnc2CCC1NC(=O)n1cc(Cc2cccc(F)c2)cn1 (stereo not shown) [Example 30, 4-(3-fluorobenzyl)-N-(6-oxo-6,7,8,9-tetrahydro-5H-pyrazino[2,3-b]azepin-7-yl)-1H-pyrazole-1-carboxamide]	> 100 nM
COc1ccc2c(c1)OC[C@H](NC(=O)n1cc(Cc3ccccc3)cn1)C(=O)N2C [Example 18, (S)-4-benzyl-N-(8-methoxy-5-methyl-4-oxo-2,3,4,5-tetrahydrobenzo[b][1,4]oxazepin-3-yl)-1H-pyrazole-1-carboxamide]	< 10 nM
CN1C(=O)C(NC(=O)n2cc(Cc3ccccc3)cn2)CCc2cc(F)cc(F)c21 (stereo not shown) [Example 27, 4-benzyl-N-(7,9-difluoro-1-methyl-2-oxo-2,3,4,5-tetrahydro-1H-benzo[b]azepin-3-yl)-1H-pyrazole-1-carboxamide]	< 10 nM
CN1C(=O)[C@@H](NC(=O)n2cc(Cc3cccc(C#N)c3)cn2)COc2ccccc21 [Example 7, (S)-4-(3-cyanobenzyl)-N-(5-methyl-4-oxo-2,3,4,5-tetrahydrobenzo[b][1,4]oxazepin-3-yl)-1H-pyrazole-1-carboxamide]	< 10 nM
